Legend:
MC4 receptor (MC4R) = biological target: T1, MC4 receptor (MC4R) (Homo sapiens, UniProt P32245); experiment: Nle4, D-Phe7-α-MSH inhibition at the MC4 receptor (SPA competition binding vs [125I] Nle4, D-Phe7-α-MSH); conditions: vs 0.06 nM [125I] Nle4, D-Phe7-α-MSH, CHO-CRE MC4R cell membranes
T1 construct: expressed in transfected cells; host or cells: CHO-CRE MC4R cells (membranes)
Description: Nle4, D-Phe7-α-MSH Inhibition at the MC4 Receptor
(§1) Nle4, Nle4, D-Phe7-α-MSH is a stable analogue of melanocyte-stimulating hormone (MSH), which is an agonist at the MC4 receptor (MC4R). Compounds can be evaluated for their ability to inhibit Nle4, Nle4, D-Phe7-α-MSH binding to membranes from cells expressing the MC4R using a competition binding assay versus [^125I] Nle4, D-Phe7-α-MSH.
Cells expressing the MC4R were subject to homogenisation and the membrane fragment isolated by differential centrifugation. CHO-CRE MC4R cell membranes were coupled to PVT-PEI-WGA SPA Beads type A for 2 hours, spun at 1000 RPM for 5 mins and suspended to a concentration of 300 ug bead/ml (0.15 ug membrane, 15 ug bead per well). Bead/membrane mix was incubated with 0.06 nM [^125I] Nle4, D-Phe7-α-MSH and 11 half-log concentrations of competitor ligand, in duplicate, in a total volume of 50 μl buffer per well (25 mM HEPES, 1 mM MgCl2, 2.5 mM CaCl2, 1% Pluronic F68, 1 complete EDTA protease inhibitor tablet/50 ml pH7). Non-specific binding was determined by the inclusion of 100 nM SHU9119. The reaction was initiated by the addition of bead/membranes and plates were incubated at room temperature for 12 hours (the first hour on a plate shaker), after which the amount of radioactivity present was determined using a Wallac plate counter. Ki values were determined by data analysis using appropriate software.

MC3 receptor (MC3R) = biological target: T2, MC3 receptor (MC3R) (Homo sapiens, UniProt P41968); experiment: Nle4, D-Phe7-α-MSH inhibition at the MC3 receptor (SPA competition binding); conditions: vs 0.06 nM Nle4, D-Phe7-α-MSH, CHO-CRE MC3R cell membranes
T2 construct: expressed in transfected cells; host or cells: CHO-CRE MC3R cells (membranes)
T2 sequence (P41968 whole entry): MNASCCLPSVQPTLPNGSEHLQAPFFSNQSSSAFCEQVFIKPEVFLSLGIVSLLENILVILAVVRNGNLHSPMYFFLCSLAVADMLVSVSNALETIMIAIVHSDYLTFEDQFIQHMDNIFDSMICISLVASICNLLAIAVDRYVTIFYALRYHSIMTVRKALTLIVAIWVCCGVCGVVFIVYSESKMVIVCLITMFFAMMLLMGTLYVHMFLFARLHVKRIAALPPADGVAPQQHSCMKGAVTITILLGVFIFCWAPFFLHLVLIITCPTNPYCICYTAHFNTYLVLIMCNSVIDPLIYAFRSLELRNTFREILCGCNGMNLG
Description: Nle4, D-Phe7-α-MSH Inhibition at the MC3 Receptor
as §1, with “Nle4,” for “Nle4, Nle4,”, “MC3” for “MC4”, “(MC3R).” for “(MC4R).”, “MC3R” for “MC4R”
Cells expressing the MC3R were subject to homogenisation and the membrane fragment isolated by differential centrifugation. CHO-CRE MC3R cell membranes were coupled to PVT-PEI-WGA SPA Beads type A for 2 hours, spun at 1000 RPM for 5 mins and suspended to a final assay concentration of 800 ug bead/ml (1.2 ug membrane, 40 ug bead per well). Bead/membrane mix was incubated with 0.06 nM Nle4, D-Phe7-α-MSH and 11 half-log concentrations of competitor ligand, in duplicate, in a total volume of 50 μl buffer per well (25 mM HEPES, 1 mM MgCl2, 2.5 mM CaCl2, 1% Pluronic F68, 1 complete EDTA protease inhibitor tablet/50 ml pH7).
Non-specific binding was determined by the inclusion of 100 nM SHU9119. The reaction was initiated by the addition of bead/membranes and plates were incubated at room temperature for 12 hours (the first hour on a plate shaker), after which the amount of radioactivity present was determined using a Wallac plate counter. Ki values were determined by data analysis using appropriate software.

T1 sequence (P32245 whole entry): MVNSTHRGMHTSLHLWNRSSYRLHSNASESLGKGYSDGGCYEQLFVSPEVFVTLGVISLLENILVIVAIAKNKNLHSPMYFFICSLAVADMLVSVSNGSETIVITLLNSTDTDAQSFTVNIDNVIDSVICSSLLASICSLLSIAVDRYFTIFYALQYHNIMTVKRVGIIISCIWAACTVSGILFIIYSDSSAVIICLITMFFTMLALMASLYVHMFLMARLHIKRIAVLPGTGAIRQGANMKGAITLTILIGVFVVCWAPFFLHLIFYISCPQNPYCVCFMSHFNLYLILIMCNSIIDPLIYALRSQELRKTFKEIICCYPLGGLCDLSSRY

| Structure (SMILES) | Ki (MC4 receptor (MC4R)) [nM] | Ki (MC3 receptor (MC3R)) [nM] |
| --- | --- | --- |
| CC1CN(C(=O)C2CN(c3ccc(=O)n(C)n3)CC2c2ccc(Cl)cn2)CC(C)C1(O)c1ccc(Cl)cc1 (stereo not shown) [Example 23] | 65.7 | 264 |
| CC1CN(C(=O)C2CN(c3ccc(=O)n(C)n3)CC2c2ccc(Cl)cn2)CC(C)C1(O)c1ccc(F)c(F)c1 (stereo not shown) [Example 19] | 85.4 | 568 |
| CC1CN(C(=O)C2CN(c3cncc(F)c3)CC2c2ccc(Cl)cn2)CC(C)C1(O)c1ccc(F)cc1 (stereo not shown) [Example 25] | 10.9 | < 0.105 |
| COc1ccc(C2(O)C(C)CN(C(=O)C3CN(c4ccc(=O)n(C)n4)CC3c3ccc(Cl)cn3)CC2C)cc1 (stereo not shown) [Example 20] | 251 | 1020 |
| C[C@@H]1CN(C(=O)[C@@H]2CN(c3ccc(=O)[nH]n3)C[C@H]2c2ccc(Cl)cn2)C[C@H](C)[C@@]1(O)c1ccccn1 [Example 28] |  | 1670 |
| C[C@@H]1CN(C(=O)[C@@H]2CN(c3ccc(C#N)nn3)C[C@H]2c2ccc(F)cn2)C[C@H](C)[C@@]1(O)c1ccc(Cl)cc1 [Example 32] | 150 | 456 |
| C[C@@H]1CN(C(=O)[C@@H]2CN(c3ccc(=O)n(C)n3)C[C@H]2c2ccc(Cl)cn2)C[C@H](C)[C@@]1(O)c1ccccn1 [Example 22] |  | 5560 |
| C[C@@H]1CN(C(=O)[C@@H]2CN(c3ccc(=O)n(C)n3)C[C@H]2c2ccc(Cl)cn2)C[C@H](C)[C@@]1(O)c1ccc(Cl)cn1 [Example 10] | 276 | 977 |
| C[C@@H]1CN(C(=O)[C@@H]2CN(c3ccc(C#N)nn3)C[C@H]2c2ccc(Cl)cn2)C[C@H](C)[C@@]1(O)c1ccc(F)cc1 [Example 2, 6-[(3S,4S)-3-(5-Chloropyridin-2-yl)-4-{[(3R,4R,5S)-4-(4-fluorophenyl)-4-hydroxy-3,5-dimethylpiperidin-1-yl]carbonyl}pyrrolidin-1-yl]pyridazine-3-carbonitrile] | 27 | 124 |
| C[C@@H]1CN(C(=O)[C@@H]2CN(c3ccc(C#N)nn3)C[C@H]2c2ccc(C#N)cn2)C[C@H](C)[C@@]1(O)c1ccc(F)cc1 [Example 46] |  | 551 |
| C[C@@H]1CN(C(=O)[C@@H]2CN(c3ccc(=O)n(C)n3)C[C@H]2c2ccc(Cl)cn2)C[C@H](C)[C@@]1(O)C1CCCCC1 [Example 17] | 112 | 332 |

Reference: US8138188B2, “Melanocortin type 4 receptor agonist piperidinoylpyrrolidines” (Pfizer Inc., priority 2006, dated 2012)
